# Assays:
# NPR-B receptor = molecular target: T1, NPR-B receptor (Mus musculus, UniProt Q6VVW5); settings: AtT-20 cells; cited from earlier work
# T1 construct: the only natriuretic receptor present on the cell surface was the NPR-B receptor; host or cells: AtT-20 pituitary tumor cells (endogenous receptor)
# T1 sequence (Q6VVW5 17-1047): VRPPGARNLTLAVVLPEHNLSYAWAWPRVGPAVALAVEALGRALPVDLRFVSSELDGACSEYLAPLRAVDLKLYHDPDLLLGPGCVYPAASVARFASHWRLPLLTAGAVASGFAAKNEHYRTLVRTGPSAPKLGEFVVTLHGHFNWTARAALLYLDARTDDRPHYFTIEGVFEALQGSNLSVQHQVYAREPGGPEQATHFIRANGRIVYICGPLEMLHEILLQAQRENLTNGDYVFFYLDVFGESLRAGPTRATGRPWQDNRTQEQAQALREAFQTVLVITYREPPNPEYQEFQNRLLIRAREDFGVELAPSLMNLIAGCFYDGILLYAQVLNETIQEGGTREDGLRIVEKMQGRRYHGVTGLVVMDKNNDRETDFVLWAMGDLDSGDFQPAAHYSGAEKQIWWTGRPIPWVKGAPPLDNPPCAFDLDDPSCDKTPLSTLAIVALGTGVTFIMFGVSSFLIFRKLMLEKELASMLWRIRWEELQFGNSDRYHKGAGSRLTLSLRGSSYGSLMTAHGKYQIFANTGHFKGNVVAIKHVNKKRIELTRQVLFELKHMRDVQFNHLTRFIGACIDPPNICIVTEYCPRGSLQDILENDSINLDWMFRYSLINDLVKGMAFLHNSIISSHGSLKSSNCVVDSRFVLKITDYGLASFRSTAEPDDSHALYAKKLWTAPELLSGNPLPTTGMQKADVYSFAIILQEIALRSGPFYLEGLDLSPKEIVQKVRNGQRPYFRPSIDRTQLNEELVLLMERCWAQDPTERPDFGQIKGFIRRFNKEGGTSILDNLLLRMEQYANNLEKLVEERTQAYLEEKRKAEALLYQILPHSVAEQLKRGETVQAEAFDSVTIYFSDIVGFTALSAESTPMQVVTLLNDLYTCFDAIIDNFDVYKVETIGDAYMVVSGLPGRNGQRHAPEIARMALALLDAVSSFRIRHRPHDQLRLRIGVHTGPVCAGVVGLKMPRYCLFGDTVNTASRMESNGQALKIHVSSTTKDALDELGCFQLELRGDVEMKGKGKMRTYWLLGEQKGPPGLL
# chondrocytes = settings: CNP 10 to 100 pM, at the highest dose; cited from earlier work
# rabbit eyes = experiment: Efficacy in the rabbit: intraocular pressure (IOP) after a single topical ocular drop; assay type: in vivo; settings: dose 300 ug topical ocular, single 30 μL drop, up to 4 hr post dose, 1% as suspension (+) or solution (++) per mark on label
# Experimental: A single 30 μL drop of a test item formulation was administered to rabbit eyes (n=8 to 10).
# Intraocular pressure (IOP) was assessed in each eye at 0 hr, just prior to dosing, and again hourly for up to 4 hr post dose. The efficacy of a given formulation was determined based on the difference between the pretreatment TOP readings at 0 hr and the post treatment readings. A maximum percent reduction in IOP greater than 15% was noted by the “+” symbol. A maximum IOP reduction of less than 15% was assigned the “−” symbol.
# [1] = test system: human renal carcinoma cells; settings: 100 μM; cited from earlier work
# [2] = test system: small-cell lung cancer cells; settings: 100 μM; cited from earlier work
structure (smiles),measurement,setting,value
"CC[C@H](C)[C@@H]1NC(=O)[C@H](CCCNC(=N)N)NC(=O)[C@H](CC(=O)O)NC(=O)[C@H](CC(C)C)NC(=O)[C@H](CCCCN)NC(=O)[C@H](CC(C)C)NC(=O)CNC(=O)[C@H](Cc2ccccc2)NC(=O)[C@@H](NC(=O)CNC(=O)[C@H](CCCCN)NC(=O)[C@H](CO)NC(=O)[C@H](CC(C)C)NC(=O)CN)CSSC[C@@H](C(=O)O)NC(=O)CNC(=O)[C@H](CC(C)C)NC(=O)CNC(=O)[C@H](CO)NC(=O)[C@H](CCSC)NC(=O)[C@H](CO)NC(=O)CNC1=O [CNP, C-type natriuretic peptide]",stimulation of cGMP production,NPR-B receptor,up to 200 fold
same,increase in cellularity (chondrocyte proliferation),chondrocytes,up to 43%
same,"RIOP, maximum percent reduction in IOP",rabbit eyes,− (− IOP reduction <15%)
same,decrease in cell number of human renal carcinoma cells,[1],10%
same,decrease in the number of small-cell lung cancer cells,[2],39%

# Reference: patent publication US9822147B2, “Methods of treating ophthalmic diseases using NPR-B agonists” (priority 2009, dated 2017)
